From US6670446B1, “N1 modified glycopeptides” (Eli Lilly and Company, priority 1998, dated 2003)

How the values were obtained:
Assay type in all cases: cell-based
Enterococcus faecium 180 = assay: MIC, standard broth micro-dilution assay, EF 180
Experimental: (§1) The antibacterial efficacy of the present compounds is illustrated by Table III. The minimal inhibitory concentrations (MICs) were determined using a standard broth micro-dilution assay.

[1] = system: Resistant Enterococcus faecium and faecalis; assay: MIC, standard broth micro-dilution assay, Resistant; conditions: geometric mean of 4-6 isolates
Experimental: as §1

[2] = system: Staphylococcus haemolyticus 415; assay: MIC, standard broth micro-dilution assay, SH 415
Experimental: as §1

[3] = system: Enterococcus faecalis 276; assay: MIC, standard broth micro-dilution assay, EF 276
Experimental: as §1

[4] = system: Staphylococcus aureus SA1199; assay: MIC, standard broth micro-dilution assay, SA 1199
Experimental: as §1

[5] = system: Staphylococcus aureus X400; assay: MIC, standard broth micro-dilution assay, SA X400
Experimental: as §1

[6] = system: Sensitive Enterococcus faecium and faecalis; assay: MIC, standard broth micro-dilution assay, Sensitive; conditions: geometric mean of 4-6 isolates
Experimental: as §1

[7] = system: Enterococcus faecium 180-1; assay: MIC, standard broth micro-dilution assay, EF 180-1
Experimental: as §1

[8] = system: Staphylococcus aureus S13E
Experimental: as §1

[9] = system: Staphylococcus haemolyticus 105; assay: MIC, standard broth micro-dilution assay, SH 105
Experimental: as §1

[10] = system: Staphylococcus aureus 446; assay: MIC, standard broth micro-dilution assay, SA 446
Experimental: as §1

[11] = system: Enterococcus gallinarum 245; assay: MIC, standard broth micro-dilution assay, EG 245
Experimental: as §1

[12] = system: Staphylococcus epidermidis 270; assay: MIC, standard broth micro-dilution assay, SE 270
Experimental: as §1

[13] = system: Haemophilus influenzae RD; assay: MIC, standard broth micro-dilution assay, HFRD
Experimental: as §1

Escherichia coli EC14 = assay: MIC, standard broth micro-dilution assay, EC 14
Experimental: as §1

[14] = system: Staphylococcus aureus 491; assay: MIC, standard broth micro-dilution assay, SA 491
Experimental: as §1

[15] = system: Enterococcus faecalis 2041; assay: MIC, standard broth micro-dilution assay, EF 2041
Experimental: as §1

[16] = system: Staphylococcus aureus X778; assay: MIC, standard broth micro-dilution assay, SA X778
Experimental: as §1

[17] = system: Staphylococcus aureus 447; assay: MIC, standard broth micro-dilution assay, SA 447
Experimental: as §1

[18] = system: Staphylococcus aureus SA1199A; assay: MIC, standard broth micro-dilution assay, SA 1199A
Experimental: as §1

[19] = system: Staphylococcus aureus 489; assay: MIC, standard broth micro-dilution assay, SA 489
Experimental: as §1

`CC1OC(OC2C(Oc3c4cc5cc3Oc3ccc(cc3Cl)[C@@H](O)[C@@H](NC(=O)c3ccc(-c6ccccc6)cc3)C(=O)N[C@@H](CC(N)=O)C(=O)N[C@H]5C(=O)N[C@H]3C(=O)NC(C(=O)N[C@H](C(=O)O)c5cc(O)cc(O)c5-c5cc3ccc5O)[C@H](OC3CC(C)(N)C(O)C(C)O3)c3ccc(c(Cl)c3)O4)OC(CO)C(O)C2O)CC(C)(N)C1O` (some centres unmarked) [Example 1, N^1-(p-phenylbenzoyl)desleucylA82846B] was tested, and the “minimal inhibitory concentration (MIC), EF 180” value (Enterococcus faecium 180) was 64, the “minimal inhibitory concentration (MIC), Resistant” value [1] was >128 and the “minimal inhibitory concentration (MIC), SH 415” value [2] was 4. For the same molecule, the “minimal inhibitory concentration (MIC), EF 276” value [3] was 0.125, the “minimal inhibitory concentration (MIC), SA 1199” value [4] was 0.125 and the “minimal inhibitory concentration (MIC), SA X400” value [5] was 0.5. The “minimal inhibitory concentration (MIC), Sensitive” value [6] was 4, the “minimal inhibitory concentration (MIC), EF 180-1” value [7] was 0.125 and the “minimal inhibitory concentration (MIC), SA S13E” value [8] was 0.25. The “minimal inhibitory concentration (MIC), SH 105” value [9] was 2, the “minimal inhibitory concentration (MIC), SA 446” value [10] was 1 and the “minimal inhibitory concentration (MIC), EG 245” value [11] was 2. The “minimal inhibitory concentration (MIC), SE 270” value [12] was 0.5, the “minimal inhibitory concentration (MIC), HFRD” value [13] was “no growth” and the “minimal inhibitory concentration (MIC), EC 14” value (Escherichia coli EC14) was >64. The “minimal inhibitory concentration (MIC), SA 491” value [14] was 0.5, the “minimal inhibitory concentration (MIC), EF 2041” value [15] was 0.125 and the “minimal inhibitory concentration (MIC), SA X778” value [16] was 0.125. The “minimal inhibitory concentration (MIC), SA 447” value [17] was 0.25, the “minimal inhibitory concentration (MIC), SA 1199A” value [18] was “≦.06” and the “minimal inhibitory concentration (MIC), SA 489” value [19] was 0.5.

For `CC1OC(OC2C(Oc3c4cc5cc3Oc3ccc(cc3Cl)[C@@H](O)[C@@H](NC(=O)CCCCCCCc3ccccc3)C(=O)N[C@@H](CC(N)=O)C(=O)N[C@H]5C(=O)N[C@H]3C(=O)NC(C(=O)N[C@H](C(=O)O)c5cc(O)cc(O)c5-c5cc3ccc5O)[C@H](OC3CC(C)(N)C(O)C(C)O3)c3ccc(c(Cl)c3)O4)OC(CO)C(O)C2O)CC(C)(N)C1O` (some centres unmarked) [Example 2, N^1-(8-phenyl-n-octanoyl)desleucylA82846B], the “minimal inhibitory concentration (MIC), EF 180” value (Enterococcus faecium 180) was 8, the “minimal inhibitory concentration (MIC), Resistant” value [1] was >128 and the “minimal inhibitory concentration (MIC), SH 415” value [2] was 8. For the same molecule, the “minimal inhibitory concentration (MIC), EF 276” value [3] was “≦.06”, the “minimal inhibitory concentration (MIC), SA 1199” value [4] was 0.125 and the “minimal inhibitory concentration (MIC), SA X400” value [5] was “≦.06”. For the same molecule, the “minimal inhibitory concentration (MIC), Sensitive” value [6] was 1.5, the “minimal inhibitory concentration (MIC), EF 180-1” value [7] was “≦.06” and the “minimal inhibitory concentration (MIC), SA S13E” value [8] was “≦.06”. For the same molecule, the “minimal inhibitory concentration (MIC), SH 105” value [9] was 1, the “minimal inhibitory concentration (MIC), SA 446” value [10] was “≦.06” and the “minimal inhibitory concentration (MIC), EG 245” value [11] was 0.25. For the same molecule, the “minimal inhibitory concentration (MIC), SE 270” value [12] was 0.125, the “minimal inhibitory concentration (MIC), HFRD” value [13] was “no growth” and the “minimal inhibitory concentration (MIC), EC 14” value (Escherichia coli EC14) was >64. The “minimal inhibitory concentration (MIC), SA 491” value [14] was “≦.06”, the “minimal inhibitory concentration (MIC), EF 2041” value [15] was “≦.06” and the “minimal inhibitory concentration (MIC), SA X778” value [16] was “≦.06”. The “minimal inhibitory concentration (MIC), SA 447” value [17] was “≦.06”, the “minimal inhibitory concentration (MIC), SA 1199A” value [18] was “≦.06” and the “minimal inhibitory concentration (MIC), SA 489” value [19] was “≦.06”.

`CC1OC(OC2c3ccc(c(Cl)c3)Oc3cc4cc(c3OC3OC(CO)C(O)C(O)C3OC3CC(C)(NCc5ccc(-c6ccccc6)cc5)C(O)C(C)O3)Oc3ccc(cc3Cl)C(O)C(NC(=O)CCCCCCCc3ccccc3)C(=O)NC(CC(N)=O)C(=O)NC4C(=O)NC3C(=O)NC2C(=O)NC(C(=O)O)c2cc(O)cc(O)c2-c2cc3ccc2O)CC(C)(N)C1O` (centres unmarked) [Example 3, N^1-(8-phenyl-n-octanoyl)-N^DISACC-(p-phenylbenzyl)desleucylA82846B] was tested, and the “minimal inhibitory concentration (MIC), EF 180” value (Enterococcus faecium 180) was 1, the “minimal inhibitory concentration (MIC), Resistant” value [1] was 6.7 and the “minimal inhibitory concentration (MIC), SH 415” value [2] was 2. For the same molecule, the “minimal inhibitory concentration (MIC), EF 276” value [3] was 0.5, the “minimal inhibitory concentration (MIC), SA 1199” value [4] was 1 and the “minimal inhibitory concentration (MIC), SA X400” value [5] was 1. The “minimal inhibitory concentration (MIC), Sensitive” value [6] was 2.6, the “minimal inhibitory concentration (MIC), EF 180-1” value [7] was “≦.06” and the “minimal inhibitory concentration (MIC), SA S13E” value [8] was 2. For the same molecule, the “minimal inhibitory concentration (MIC), SH 105” value [9] was 1, the “minimal inhibitory concentration (MIC), SA 446” value [10] was 1 and the “minimal inhibitory concentration (MIC), EG 245” value [11] was 2. The “minimal inhibitory concentration (MIC), SE 270” value [12] was 1, the “minimal inhibitory concentration (MIC), HFRD” value [13] was >64 and the “minimal inhibitory concentration (MIC), EC 14” value (Escherichia coli EC14) was >64. The “minimal inhibitory concentration (MIC), SA 491” value [14] was 1, the “minimal inhibitory concentration (MIC), EF 2041” value [15] was 0.5 and the “minimal inhibitory concentration (MIC), SA X778” value [16] was 1. The “minimal inhibitory concentration (MIC), SA 447” value [17] was 1, the “minimal inhibitory concentration (MIC), SA 1199A” value [18] was 0.5 and the “minimal inhibitory concentration (MIC), SA 489” value [19] was 1.

For `CC1OC(OC2c3ccc(c(Cl)c3)Oc3cc4cc(c3OC3OC(CO)C(O)C(O)C3OC3CC(C)(NCc5ccc(-c6ccc(Cl)cc6)cc5)C(O)C(C)O3)Oc3ccc(cc3Cl)C(O)C(NC(=O)CCCCCCN)C(=O)NC(CC(N)=O)C(=O)NC4C(=O)NC3C(=O)NC2C(=O)NC(C(=O)O)c2cc(O)cc(O)c2-c2cc3ccc2O)CC(C)(N)C1O` (centres unmarked) [Example 10, N^1-(7-amino-n-heptanoyl)-N^DISACC-[p-(p-chlorophenyl)benzyl]desleucylA82846B], the “minimal inhibitory concentration (MIC), Resistant” value [1] was 5.7 and the “minimal inhibitory concentration (MIC), Sensitive” value [6] was 0.57.

For `CC(C)C[C@@H](NC(=O)OC(C)(C)C)C(=O)N[C@H]1C(=O)N[C@@H](CC(N)=O)C(=O)N[C@H]2C(=O)N[C@H]3C(=O)NC(C(=O)N[C@H](C(=O)O)c4cc(O)cc(O)c4-c4cc3ccc4O)[C@H](OC3CC(C)(N)C(O)C(C)O3)c3ccc(c(Cl)c3)Oc3cc2cc(c3OC2OC(CO)C(O)C(O)C2OC2CC(C)(N)C(O)C(C)O2)Oc2ccc(cc2Cl)[C@H]1O` (stereo partly drawn) [Example 14, N^1-(N-BOC-D-leucine) derivative of desleucylA82846B], the “minimal inhibitory concentration (MIC), Resistant” value [1] was >128 and the “minimal inhibitory concentration (MIC), Sensitive” value [6] was 6.1.

In the case of `CC1OC(OC2C(Oc3c4cc5cc3Oc3ccc(cc3Cl)[C@@H](O)[C@@H](NC(=O)[C@@H](CCCCNC(=O)OC(C)(C)C)NC(=O)OC(C)(C)C)C(=O)N[C@@H](CC(N)=O)C(=O)N[C@H]5C(=O)N[C@H]3C(=O)NC(C(=O)N[C@H](C(=O)O)c5cc(O)cc(O)c5-c5cc3ccc5O)[C@H](OC3CC(C)(N)C(O)C(C)O3)c3ccc(c(Cl)c3)O4)OC(CO)C(O)C2O)CC(C)(N)C1O` (stereo partly drawn) [Example 16, N^1-(N,N′-DIBOC-D-lysine) derivative of desleucylA82846B], the “minimal inhibitory concentration (MIC), Resistant” value [1] is reported as >128 and the “minimal inhibitory concentration (MIC), Sensitive” value [6] is reported as 7.

With `CNC(C(=O)NC1C(=O)NC(CC(N)=O)C(=O)NC2C(=O)NC3C(=O)NC(C(=O)NC(C(=O)O)c4cc(O)cc(O)c4-c4cc3ccc4O)C(OC3CC(C)(N)C(O)C(C)O3)c3ccc(c(Cl)c3)Oc3cc2cc(c3OC2OC(CO)C(O)C(O)C2OC2CC(C)(N)C(O)C(C)O2)Oc2ccc(cc2Cl)C1O)C(C)C` [Example 42, N^1-(N-methyl-D-valine) derivative of desleucylA82846B] the “minimal inhibitory concentration (MIC), EF 180” value (Enterococcus faecium 180) was 64, the “minimal inhibitory concentration (MIC), Resistant” value [1] was 128 and the “minimal inhibitory concentration (MIC), SH 415” value [2] was 1. For the same molecule, the “minimal inhibitory concentration (MIC), SA X400” value [5] was 0.5, the “minimal inhibitory concentration (MIC), Sensitive” value [6] was 0.66 and the “minimal inhibitory concentration (MIC), SA S13E” value [8] was 1. For the same molecule, the “minimal inhibitory concentration (MIC), SH 105” value [9] was 0.5, the “minimal inhibitory concentration (MIC), SA 446” value [10] was 0.5 and the “minimal inhibitory concentration (MIC), SE 270” value [12] was 1. For the same molecule, the “minimal inhibitory concentration (MIC), EC 14” value (Escherichia coli EC14) was >64, the “minimal inhibitory concentration (MIC), SA 491” value [14] was 1 and the “minimal inhibitory concentration (MIC), SA X778” value [16] was 2. For the same molecule, the “minimal inhibitory concentration (MIC), SA 447” value [17] was 0.5 and the “minimal inhibitory concentration (MIC), SA 489” value [19] was 0.5.
